Results: ChEMBL document CHEMBL5579854, “Targeting Relevant HDACs to Support the Survival of Cone Photoreceptors in Inherited Retinal Diseases: Identification of a Potent Pharmacological Tool with In Vitro and In Vivo Efficacy” (J Med Chem, 2024)
≈ marks a conversion by molar mass, not a printed value. Calls of active or inactive are those of the source. The calls are words filed in the database; no cut-off is given here.

What was measured:
Mus musculus [1] = assay: Upregulation of Nr3c1 mRNA level in eyes of C57BL/6J mouse model harboring rd10 mutant at 5 to 30 uM, IVT administered bilaterally measured after 5 days by RT-PCR analysis; format: functional, tissue-based; conditions: Eye, dose 5-30 µM, time 5.0 day
[2] = Inhibition of CYP1A in mouse liver microsomes using ECOD at 1 to 50 uM measured upto 30 mins by fluorescence based assay; format: ADME, Microsome; conditions: 0.5 h, dose 1-50 µM
661W [3] = assay: Cytoprotective effect against H2O2-induced oxidative stress in mouse 661W cells assessed as increase in acetylated histone H3 level at 5 uM incubated for 24 hrs followed by H2O2 treatment for 3 hrs by Western blot analysis; format: functional, cell-based; conditions: time 27.0 hrs
Danio rerio [4] = species on record: Danio rerio; assay: Rescue of vision in zebrafish larval dye model harboring atp6v0e1/ucd6 at 100 uM treated for 2 days by OKR analysis; format: functional, organism-based; conditions: time 2.0 day
Cone cell = assay: Rescue of cone cell morphology in eyes of C57BL/6J mouse model harboring rd10 mutant at 30 uM, IVT administered bilaterally measured after 5 days by IHC analysis; format: functional, tissue-based; conditions: Eye, time 5.0 day
Mus musculus [5] = assay: Upregulation of GNAT1 mRNA level in eyes of C57BL/6J mouse model harboring rd10 mutant at 5 to 30 uM, IVT administered bilaterally measured after 5 days by RT-PCR analysis; format: functional, tissue-based; conditions: Eye, dose 5-30 µM, time 5.0 day
[6] = Solubility of compound; format: physicochemical
[7] = Toxicity in zebrafish larval dye model harboring atp6v0e1/ucd6 assessed as maximum tolerated dose treated for 2 days; parameters: species or system Danio rerio; conditions: in vivo, 48 h, time 2 day
[8] = Induction of cone cell survival rate in eyes of C57BL/6J mouse model harboring rd10 mutant at 5 uM, IVT administered bilaterally measured after 5 days by fluorescence microscopy relative to control; format: functional, Eye; conditions: time 5 day
Danio rerio [9] = species on record: Danio rerio; assay: Rescue of visual acuity in zebrafish larval dye model harboring atp6v0e1/ucd6 at 100 uM treated for 2 days by OKR analysis; format: functional, organism-based; conditions: time 2.0 day
[10] = Stability of compound at pH 7.4 measured after 24 hrs; format: physicochemical; conditions: buffer, read-out: Stability
ARPE-19 = assay: Cytoprotective effect against H2O2-induced oxidative stress in human ARPE-19 cells assessed as increase in cell viability at low concentration incubated for 24 hrs followed by H2O2 treatment by MTT assay; format: functional, cell-based
661W [11] = assay: Cytoprotective effect against H2O2-induced oxidative stress in mouse 661W cells assessed as increase in acetylated alpha-tubulin level incubated for 24 hrs followed by H2O2 treatment for 3 hrs by Western blot analysis; format: functional, cell-based; conditions: dose 10-30 µM, time 27.0 hrs
[12] = Metabolic stability in human liver microsomes assessed as compound recovery at 10 uM incubated for 60 mins in presence of NADPH by HPLC analysis; format: ADME, Microsome; conditions: read-out: Stability
Cytochrome P450 = assay: Inhibition of CYP in human liver microsomes using ECOD at 1 to 50 uM measured upto 30 mins by fluorescence based assay; format: ADME, Microsome; conditions: 0.5 h, dose 1-50 µM

SMILES: O=C(NO)c1ccc(CNC(=O)N2CCc3c(c4ccccc4n3Cc3ccccc3)C2)cc1
- Activity (Mus musculus [1]): Active
- inhibition (INH) [2]: Not Active
- Activity (661W [3]): Active
- Activity (Danio rerio [4]): Active
- Activity (Cone cell): Active
- Activity (Mus musculus [5]): Active
- solubility [6]: 309 µM (≈ 140 µg/mL)
- MTD [7]: 100 µM
- Activity [8]: 4%
- Activity (Danio rerio [9]): inactive
- remaining at 24 h [10]: > 99%
- Activity (ARPE-19): Active
- Activity (661W [11]): Dose-Dependent Effect
- remaining at 1 h, 10 µM [12]: 84%
- inhibition (INH) (Cytochrome P450): Not Active
